In one assay the test system is KM mice. Description: Test for drug-induced disappearance of righting reflex in mice. Particulars: 30 mg/kg, single rapid bolus via tail vein. Format: in vivo. Put shortly:
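Female KM mice (18–25 g), randomly grouped, given a single rapid bolus via tail vein. Latency (administration to loss of righting reflex) and duration (loss to recovery) recorded.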
The molecule `COC(=O)CC[C@@H]1N=C(c2ccccc2Cl)c2cc(Br)ccc2-n2c(SCCCN(C)C)nnc21` [Compound 88, methyl (S)-3-(8-bromo-6-(2-chlorophenyl)-1-((3-(dimethylamino)propyl)thio)-4H-benzo[f][1,2,4]triazolo[4,3-a][1,4]diazepin-4-yl)propionate] showed a Duration of 15.82 min and a Latency of 0.53 min.
Take `COC(=O)CC[C@@H]1N=C(c2ccccc2Cl)c2cc(Cl)ccc2-n2c(SCCN3CCN(C)CC3)nnc21` [Compound 90, methyl (S)-3-(8-chloro-6-(2-chlorophenyl)-1-((2-(4-methylpiperazin-1-yl)ethyl)thio)-4H-benzo[f][1,2,4]triazolo[4,3-a][1,4]diazepin-4-yl)propionate]: the Duration is listed as 15.26 min and the Latency was found to be 0.67 min.
`COC(=O)CC[C@@H]1N=C(c2ccccc2Cl)c2cc(Br)ccc2-n2c(SCCN3CCN(C)CC3)nnc21` [Compound 91, methyl (S)-3-(8-bromo-6-(2-chlorophenyl)-1-((2-(4-methylpiperazin-1-yl)ethyl)thio)-4H-benzo[f][1,2,4]triazolo[4,3-a][1,4]diazepin-4-yl)propionate] had a Duration of 17.33 min and a Latency of 1.80 min.
Molecule `COC(=O)CC[C@@H]1N=C(c2ccccc2Cl)c2cc(Cl)ccc2-n2c(SC3CCN(C)CC3)nnc21` [Compound 93, methyl (S)-3-(8-chloro-6-(2-chlorophenyl)-1-((1-methylpiperidin-4-yl)thio)-4H-benzo[f][1,2,4]triazolo[4,3-a][1,4]diazepin-4-yl)propionate] showed a Duration of 12.41 min and a Latency of 0.58 min.
In the case of `COC(=O)CC[C@@H]1N=C(c2ccccc2Cl)c2cc([N+](=O)[O-])ccc2-n2c(SC3CCN(C)CC3)nnc21` [Compound 95, methyl (S)-3-(8-nitro-6-(2-chlorophenyl)-1-((1-methylpiperidin-4-yl)thio)-4H-benzo[f][1,2,4]triazolo[4,3-a][1,4]diazepin-4-yl)propionate], the Duration turned out to be 12.41 min and the Latency worked out at 0.82 min.
`COC(=O)CC[C@@H]1N=C(c2ccccc2Cl)c2cc(Cl)ccc2-n2c(SCCCN3CCN(CCO)CC3)nnc21` [Compound 96, methyl (S)-3-(8-chloro-6-(2-chlorophenyl)-1-((3-(4-(2-hydroxyethyl)piperazin-1-yl)propyl)thio)-4H-benzo[f][1,2,4]triazolo[4,3-a][1,4]diazepin-4-yl)propionate] yielded a Duration of 7.98 min and a Latency of 0.49 min.
Taken in the same sequence, the figures for `COC(=O)CC[C@@H]1N=C(c2ccccc2Cl)c2cc([N+](=O)[O-])ccc2-n2c(SCCCN3CCN(CCO)CC3)nnc21` [Compound 98, methyl (S)-3-(8-nitro-6-(2-chlorophenyl)-1-((3-(4-(2-hydroxyethyl)piperazin-1-yl)propyl)thio)-4H-benzo[f][1,2,4]triazolo[4,3-a][1,4]diazepin-4-yl)propionate] were 14.71 min and 1.31 min.
With `COC(=O)CC[C@@H]1N=C(c2ccccc2Cl)c2cc(Br)ccc2-n2c(SCN3CCOCC3)nnc21` [Compound 100, methyl (S)-3-(8-bromo-6-(2-chlorophenyl)-1-((morpholinomethyl)thio)-4H-benzo[f][1,2,4]triazolo[4,3-a][1,4]diazepin-4-yl)propionate], the Duration is 9.75 min and the Latency is 0.64 min.
Molecule `COC(=O)CC[C@@H]1N=C(c2ccccc2Cl)c2cc([N+](=O)[O-])ccc2-n2c(SCN3CCOCC3)nnc21` [Compound 101, methyl (S)-3-(8-nitro-6-(2-chlorophenyl)-1-((morpholinomethyl)thio)-4H-benzo[f][1,2,4]triazolo[4,3-a][1,4]diazepin-4-yl)propionate] gave a Duration of 12.05 min and a Latency of 0.85 min.
Consider `COC(=O)CC[C@@H]1N=C(c2ccccc2)c2cc(Br)ccc2-n2c(SC)nnc21` [Compound 103, methyl (S)-3-(8-bromo-1-(methylthio)-6-phenyl-4H-benzo[f][1,2,4]triazolo[4,3-a][1,4]diazepin-4-yl)propionate], for which the Duration is given as 14.42 min and the Latency came to 0.74 min.
In the case of `COC(=O)CC[C@@H]1N=C(c2ccccc2)c2cc([N+](=O)[O-])ccc2-n2c(SC)nnc21` [Compound 104, methyl (S)-3-(8-nitro-1-(methylthio)-6-phenyl-4H-benzo[f][1,2,4]triazolo[4,3-a][1,4]diazepin-4-yl)propionate], the Duration turned out to be 9.78 min and the Latency is given as 0.77 min.
Take `COC(=O)CC[C@@H]1N=C(c2ccccc2)c2cc(Cl)ccc2-n2c(SCCN3CCOCC3)nnc21` [Compound 105, methyl (S)-3-(8-chloro-1-((2-morpholinoethyl)thio)-6-phenyl-4H-benzo[f][1,2,4]triazolo[4,3-a][1,4]diazepin-4-yl)propionate]: the Duration is listed as 13.94 min and the Latency turned out to be 0.63 min.
The matching figures for `COC(=O)CC[C@@H]1N=C(c2ccccc2)c2cc(Br)ccc2-n2c(SCCN3CCOCC3)nnc21` [Compound 106, methyl (S)-3-(8-bromo-1-((2-morpholinoethyl)thio)-6-phenyl-4H-benzo[f][1,2,4]triazolo[4,3-a][1,4]diazepin-4-yl)propionate]: 12.37 min and 0.33 min.
Taken in the same sequence, the figures for `COC(=O)CC[C@@H]1N=C(c2ccccc2)c2cc([N+](=O)[O-])ccc2-n2c(SCCN3CCOCC3)nnc21` [Compound 107, methyl (S)-3-(8-nitro-1-((2-morpholinoethyl)thio)-6-phenyl-4H-benzo[f][1,2,4]triazolo[4,3-a][1,4]diazepin-4-yl)propionate] were 13.64 min and 0.45 min.
`COC(=O)CC[C@@H]1N=C(c2ccccc2)c2cc([N+](=O)[O-])ccc2-n2c(SCCCN(C)C)nnc21` [Compound 110, methyl (S)-3-(8-nitro-1-((3-(dimethylamino)propyl)thio)-6-phenyl-4H-benzo[f][1,2,4]triazolo[4,3-a][1,4]diazepin-4-yl)propionate]: the Duration is 10.16 min and the Latency was determined as 0.22 min.
Molecule `COC(=O)CC[C@@H]1N=C(c2ccccc2Cl)c2cc(Cl)ccc2-n2c(SCOP(=O)(O)O)nnc21` [Compound 111, methyl (S)-3-(8-chloro-6-(2-chlorophenyl)-1-(((phosphonooxy)methyl)thio)-4H-benzo[f][1,2,4]triazolo[4,3-a][1,4]diazepin-4-yl)propionate] registered a Duration of 18.36 min and a Latency of 0.67 min.

Still in this assay, the particulars now being: 60 mg/kg, single rapid bolus via tail vein.
On to `COC(=O)CC[C@@H]1N=C(c2ccccc2Cl)c2cc(Cl)ccc2-n2c(SCCCN(C)C)nnc21` [Compound 87, methyl (S)-3-(8-chloro-6-(2-chlorophenyl)-1-((3-(dimethylamino)propyl)thio)-4H-benzo[f][1,2,4]triazolo[4,3-a][1,4]diazepin-4-yl)propionate], for which the Duration is 21.17 min and the Latency turned out to be 0.73 min.
In turn, `COC(=O)CC[C@@H]1N=C(c2ccccc2Cl)c2cc([N+](=O)[O-])ccc2-n2c(SCCCN(C)C)nnc21` [Compound 89, methyl (S)-3-(8-nitro-6-(2-chlorophenyl)-1-((3-(dimethylamino)propyl)thio)-4H-benzo[f][1,2,4]triazolo[4,3-a][1,4]diazepin-4-yl)propionate] displayed a Duration of 9.88 min and a Latency of 0.83 min.
As for `COC(=O)CC[C@@H]1N=C(c2ccccc2Cl)c2cc([N+](=O)[O-])ccc2-n2c(SCCN3CCN(C)CC3)nnc21` [Compound 92, methyl (S)-3-(8-nitro-6-(2-chlorophenyl)-1-((2-(4-methylpiperazin-1-yl)ethyl)thio)-4H-benzo[f][1,2,4]triazolo[4,3-a][1,4]diazepin-4-yl)propionate], the Duration was found to be 10.12 min and the Latency amounted to 2.00 min.
Taken in the same sequence, the figures for `COC(=O)CC[C@@H]1N=C(c2ccccc2Cl)c2cc(Br)ccc2-n2c(SC3CCN(C)CC3)nnc21` [Compound 94, methyl (S)-3-(8-bromo-6-(2-chlorophenyl)-1-((1-methylpiperidin-4-yl)thio)-4H-benzo[f][1,2,4]triazolo[4,3-a][1,4]diazepin-4-yl)propionate] were 13.85 min and 0.61 min.
`COC(=O)CC[C@@H]1N=C(c2ccccc2Cl)c2cc(Cl)ccc2-n2c(SCN3CCOCC3)nnc21` [Compound 99, methyl (S)-3-(8-chloro-6-(2-chlorophenyl)-1-((morpholinomethyl)thio)-4H-benzo[f][1,2,4]triazolo[4,3-a][1,4]diazepin-4-yl)propionate]: the Duration turned out to be 19.37 min and the Latency is 2.63 min.
`COC(=O)CC[C@@H]1N=C(c2ccccc2)c2cc(Cl)ccc2-n2c(SCCN3CCOCC3)nnc21` [Compound 105, methyl (S)-3-(8-chloro-1-((2-morpholinoethyl)thio)-6-phenyl-4H-benzo[f][1,2,4]triazolo[4,3-a][1,4]diazepin-4-yl)propionate] showed a Duration of 13.17 min and a Latency of 0.49 min.
`COC(=O)CC[C@@H]1N=C(c2ccccc2)c2cc(Br)ccc2-n2c(SCCN3CCOCC3)nnc21` [Compound 106, methyl (S)-3-(8-bromo-1-((2-morpholinoethyl)thio)-6-phenyl-4H-benzo[f][1,2,4]triazolo[4,3-a][1,4]diazepin-4-yl)propionate] came in with a Duration of 3.26 min and a Latency of 0.09 min.
With `COC(=O)CC[C@@H]1N=C(c2ccccc2)c2cc(Cl)ccc2-n2c(SCCCN(C)C)nnc21` [Compound 108, methyl (S)-3-(8-chloro-1-((3-(dimethylamino)propyl)thio)-6-phenyl-4H-benzo[f][1,2,4]triazolo[4,3-a][1,4]diazepin-4-yl)propionate], the Duration turned out to be 11.73 min and the Latency stood at 0.59 min.
For the molecule `COC(=O)CC[C@@H]1N=C(c2ccccc2)c2cc(Br)ccc2-n2c(SCCCN(C)C)nnc21` [Compound 109, methyl (S)-3-(8-bromo-1-((3-(dimethylamino)propyl)thio)-6-phenyl-4H-benzo[f][1,2,4]triazolo[4,3-a][1,4]diazepin-4-yl)propionate], the Duration was 13.27 min and the Latency is on record as 0.97 min.
With `COC(=O)CC[C@@H]1N=C(c2ccccc2)c2cc([N+](=O)[O-])ccc2-n2c(SCCCN(C)C)nnc21` [Compound 110, methyl (S)-3-(8-nitro-1-((3-(dimethylamino)propyl)thio)-6-phenyl-4H-benzo[f][1,2,4]triazolo[4,3-a][1,4]diazepin-4-yl)propionate], the Duration was determined as 15.27 min and the Latency is on record as 0.21 min.
